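Five compound concentrations were applied to cells in 96-well plates for 48 hours; endpoints were derived by simple linear interpolation of the resulting dose-response curve. GI50 = concentration required for 50% inhibition of growth.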 The source made the active and inactive calls. Rule as the data show it: active = GI50 up to about 1.1 µM and inactive = higher.
Legend:
Assay in all cases: growth of human tumour cells (NCI), 48 h
OVCAR-3 = test system: OVCAR-3
BT-549 = test system: BT-549
UO-31 = test system: UO-31
NCI-H522 = test system: NCI-H522
Hs-578T = test system: Hs-578T
HCT-15 = test system: HCT-15
HOP-62 = test system: HOP-62
LOX IMVI = test system: LOX IMVI
CAKI-1 = test system: CAKI-1
Malme-3M = test system: Malme-3M
SF-539 = test system: SF-539
HCT-116 = test system: HCT-116
MDA-MB-231 = test system: MDA-MB-231
M14 = test system: M14
TK-10 = test system: TK-10
MCF7 = test system: MCF7
ACHN = test system: ACHN
COLO 205 = test system: COLO 205
IGROV-1 = test system: IGROV-1
MDA-N = test system: MDA-N
NCI-H460 = test system: NCI-H460
SF-295 = test system: SF-295
NCI-H226 = test system: NCI-H226
NCI/ADR-RES = test system: NCI/ADR-RES
KM12 = test system: KM12
SNB-19 = test system: SNB-19
A549 = test system: A549
EKVX = test system: EKVX
SK-OV-3 = test system: SK-OV-3
SF-268 = test system: SF-268
SNB-75 = test system: SNB-75
RXF 393 = test system: RXF 393
PC-3 = test system: PC-3
OVCAR-5 = test system: OVCAR-5
DU-145 = test system: DU-145
786-0 = test system: 786-0
HCC 2998 = test system: HCC 2998
UACC-62 = test system: UACC-62
SK-MEL-5 = test system: SK-MEL-5
NCI-H23 = test system: NCI-H23
UACC-257 = test system: UACC-257
A498 = test system: A498
CCRF-CEM = test system: CCRF-CEM
HOP-92 = test system: HOP-92
SN12C = test system: SN12C
RPMI-8226 = test system: RPMI-8226
U-251 = test system: U-251
T47D = test system: T47D
MOLT-4 = test system: MOLT-4
SW-620 = test system: SW-620
OVCAR-4 = test system: OVCAR-4
MDA-MB-435 = test system: MDA-MB-435
SR = test system: SR
SK-MEL-28 = test system: SK-MEL-28
HT-29 = test system: HT-29
SK-MEL-2 = test system: SK-MEL-2
K562 = test system: K562
OVCAR-8 = test system: OVCAR-8
HL-60 = test system: HL-60

Measured: GI50

CNC(=S)N/N=C(C)\C(=N/NC(=S)NC)c1ccccc1
inactive: OVCAR-3 86.9 µM | BT-549 > 100 µM | UO-31 30.7 µM | NCI-H522 28.9 µM | Hs-578T 17.8 µM | HOP-62 > 100 µM | LOX IMVI 42.1 µM | CAKI-1 96.6 µM | Malme-3M 76.7 µM | SF-539 > 100 µM | HCT-116 31.6 µM | MDA-MB-231 > 100 µM | M14 61.4 µM | TK-10 > 100 µM | MCF7 82.8 µM | ACHN 19.9 µM | COLO 205 55.5 µM | IGROV-1 27.8 µM | MDA-N 89.7 µM | NCI-H460 25.7 µM | SF-295 34.4 µM | NCI-H226 63.7 µM | NCI/ADR-RES 39.3 µM | KM12 64.9 µM | SNB-19 70.3 µM | A549 29.2 µM | EKVX 38 µM | SK-OV-3 > 100 µM | SF-268 74.8 µM | SNB-75 69.8 µM | RXF 393 56.8 µM | PC-3 30.9 µM | OVCAR-5 > 100 µM | DU-145 > 100 µM | 786-0 50 µM | HCC 2998 > 100 µM | UACC-62 > 100 µM | SK-MEL-5 42.3 µM | NCI-H23 > 100 µM | UACC-257 > 100 µM
53.1 µM: HCT-15

O=C(NC1CCN(Cc2ccccc2)CC1)c1ccccc1I
inactive: OVCAR-3 43.9 µM | BT-549 51.1 µM | UO-31 15.8 µM | NCI-H522 14.4 µM | Hs-578T 17.9 µM | HOP-62 19.8 µM | LOX IMVI 17.5 µM | A498 57 µM | CAKI-1 53.5 µM | CCRF-CEM 24.3 µM | Malme-3M 17.5 µM | HOP-92 28.7 µM | SF-539 23.2 µM | HCT-116 16.7 µM | SN12C 62.7 µM | RPMI-8226 36.3 µM | U-251 23.2 µM | MDA-MB-231 24.2 µM | T47D 22.2 µM | M14 18.7 µM | TK-10 21.6 µM | MOLT-4 17 µM | SW-620 19.7 µM | ACHN 49.3 µM | COLO 205 18.9 µM | OVCAR-4 86.3 µM | IGROV-1 42.6 µM | NCI-H460 24.7 µM | MDA-MB-435 17.4 µM | SR 25.6 µM | SF-295 20.2 µM | NCI-H226 25.8 µM | NCI/ADR-RES 25.7 µM | KM12 17.3 µM | SNB-19 51.4 µM | A549 31.6 µM | EKVX 43.3 µM | SK-OV-3 22.4 µM | SK-MEL-28 17.8 µM | HT-29 16.6 µM | SF-268 39.3 µM | RXF 393 43.9 µM | SK-MEL-2 23.4 µM | PC-3 23.6 µM | OVCAR-5 22.5 µM | DU-145 61.9 µM | 786-0 26.1 µM | UACC-62 18.5 µM | K562 23.3 µM | OVCAR-8 39.8 µM | SK-MEL-5 16.9 µM | NCI-H23 26.2 µM | UACC-257 18.1 µM | HL-60 38.9 µM
17.7 µM: HCT-15
